Test results from ChEMBL document CHEMBL3885881, “DrugMatrix”.

Organism: Rattus norvegicus
Assay: DrugMatrix - Regimen: Daily Repeat
Format: toxicity, organism-based, Sprague-Dawley
Design: regimen Daily Repeat, gender Male, age 6-8 weeks
Conditions: in vivo, po, route oral GAVAGE, […]; for ABSOLUTE BASOPHIL / ABSOLUTE EOSINOPHIL / ABSOLUTE LYMPHOCYTE / ABSOLUTE MONOCYTE / ABSOLUTE SEGMENTED NEUTROPHIL / BASOPHIL / EOSINOPHIL / ERYTHROCYTE COUNT / HEMATOCRIT / HEMOGLOBIN / LEUKOCYTE COUNT / LYMPHOCYTE / MEAN CORPUSCULAR HEMOGLOBIN / MEAN CORPUSCULAR HEMOGLOBIN CONCENTRATION / MEAN CORPUSCULAR VOLUME / MONOCYTE / NEUTROPHIL / NUCLEATED RED BLOOD CELLS / PLATELET COUNT: tissue Blood; for ALANINE AMINOTRANSFERASE / ALBUMIN / ALKALINE PHOSPHATASE / ASPARTATE AMINOTRANSFERASE / BLOOD UREA NITROGEN / CARBON DIOXIDE / CHLORIDE / CHOLESTEROL / CREATINE PHOSPHOKINASE / CREATININE / GLUCOSE / LACTATE DEHYDROGENASE / LIPASE / PHOSPHORUS / POTASSIUM / SODIUM / TOTAL BILIRUBIN / TOTAL PROTEIN / URIC ACID: tissue Plasma
[1] = 0 mg/kg, 72 h, dose level Control, time 3 day
[2] = 0 mg/kg, 120 h, dose level Control, time 5 day
[3] = 0.6 mg/kg, 72 h, dose level Low, time 3 day

`O=C(O)CCCc1ccc(N(CCCl)CCCl)cc1` [CHLORAMBUCIL] was tested, and the “ABSOLUTE BASOPHIL” value [1] was 0 CELLS/uL, the “ABSOLUTE EOSINOPHIL” value [1] was 104.17 CELLS/uL and the “ABSOLUTE LYMPHOCYTE” value [1] was 14547 CELLS/uL. The “ABSOLUTE MONOCYTE” value [1] was 292 CELLS/uL, the “ABSOLUTE SEGMENTED NEUTROPHIL” value [1] was 1640.17 CELLS/uL and the BASOPHIL [1] was 0%. For the same compound, the EOSINOPHIL [1] was 0.67%, the “ERYTHROCYTE COUNT” value [1] was 5.35 x10E6/uL and the HEMATOCRIT [1] was 33.67%. For the same compound, the HEMOGLOBIN [1] was 13.38 G/DL, the “LEUKOCYTE COUNT” value [1] was 16.58 x10E3/uL and the LYMPHOCYTE [1] was 87.5%. For the same compound, the “MEAN CORPUSCULAR HEMOGLOBIN” value [1] was 25.05 pg, the “MEAN CORPUSCULAR HEMOGLOBIN CONCENTRATION” value [1] was 39.78 G/DL and the “MEAN CORPUSCULAR VOLUME” value [1] was 62.97 fL. For the same compound, the MONOCYTE [1] was 1.83%, the NEUTROPHIL [1] was 10% and the “NUCLEATED RED BLOOD CELLS” value [1] was 0 /100WBC. For the same compound, the “PLATELET COUNT” value [1] was 1274.5 x10E3/uL, the “ALANINE AMINOTRANSFERASE” value [1] was 76.83 u/L and the ALBUMIN [1] was 3.97 G/DL. The “ALKALINE PHOSPHATASE” value [1] was 347 u/L, the “ASPARTATE AMINOTRANSFERASE” value [1] was 97.17 u/L and the “BLOOD UREA NITROGEN” value [1] was 14.33 mg/dL. For the same compound, the “CARBON DIOXIDE” value [1] was 25.5 mmol/L, the CHLORIDE [1] was 100.33 MEQ/L and the CHOLESTEROL [1] was 68.67 mg/dL. The “CREATINE PHOSPHOKINASE” value [1] was 659.17 u/L, the CREATININE [1] was 0.32 mg/dL and the GLUCOSE [1] was 160.67 mg/dL. The “LACTATE DEHYDROGENASE” value [1] was 271.5 u/L, the LIPASE [1] was 11.67 u/L and the PHOSPHORUS [1] was 10.65 mg/dL. For the same compound, the POTASSIUM [1] was 5.95 MEQ/L, the SODIUM [1] was 139.65 MEQ/L and the “TOTAL BILIRUBIN” value [1] was 0.2 mg/dL. The “TOTAL PROTEIN” value [1] was 5.72 G/DL, the “URIC ACID” value [1] was 1.37 mg/dL and the “ABSOLUTE BASOPHIL” value [2] was 0 CELLS/uL. The “ABSOLUTE EOSINOPHIL” value [2] was 331.5 CELLS/uL, the “ABSOLUTE LYMPHOCYTE” value [2] was 15021.67 CELLS/uL and the “ABSOLUTE MONOCYTE” value [2] was 376.5 CELLS/uL. The “ABSOLUTE SEGMENTED NEUTROPHIL” value [2] was 3070.33 CELLS/uL, the BASOPHIL [2] was 0% and the EOSINOPHIL [2] was 1.83%. For the same compound, the “ERYTHROCYTE COUNT” value [2] was 5.24 x10E6/uL, the HEMATOCRIT [2] was 33.22% and the HEMOGLOBIN [2] was 13.2 G/DL. The “LEUKOCYTE COUNT” value [2] was 18.8 x10E3/uL, the LYMPHOCYTE [2] was 79.67% and the “MEAN CORPUSCULAR HEMOGLOBIN” value [2] was 25.17 pg. The “MEAN CORPUSCULAR HEMOGLOBIN CONCENTRATION” value [2] was 39.73 G/DL, the “MEAN CORPUSCULAR VOLUME” value [2] was 63.38 fL and the MONOCYTE [2] was 2%. The NEUTROPHIL [2] was 16.5%, the “NUCLEATED RED BLOOD CELLS” value [2] was 0 /100WBC and the “PLATELET COUNT” value [2] was 1142.67 x10E3/uL. For the same compound, the “ALANINE AMINOTRANSFERASE” value [2] was 52.5 u/L, the ALBUMIN [2] was 3.9 G/DL and the “ALKALINE PHOSPHATASE” value [2] was 284.5 u/L. For the same compound, the “ASPARTATE AMINOTRANSFERASE” value [2] was 81.33 u/L, the “BLOOD UREA NITROGEN” value [2] was 16 mg/dL and the “CARBON DIOXIDE” value [2] was 25.33 mmol/L. The CHLORIDE [2] was 99.5 MEQ/L, the CHOLESTEROL [2] was 74.83 mg/dL and the “CREATINE PHOSPHOKINASE” value [2] was 448.33 u/L. The CREATININE [2] was 0.37 mg/dL, the GLUCOSE [2] was 164.17 mg/dL and the “LACTATE DEHYDROGENASE” value [2] was 290.67 u/L. For the same compound, the LIPASE [2] was 6.83 u/L, the PHOSPHORUS [2] was 11.5 mg/dL and the POTASSIUM [2] was 6.28 MEQ/L. The SODIUM [2] was 139.5 MEQ/L, the “TOTAL BILIRUBIN” value [2] was 0.13 mg/dL and the “TOTAL PROTEIN” value [2] was 5.55 G/DL. The “URIC ACID” value [2] was 1.12 mg/dL, the “ABSOLUTE BASOPHIL” value [3] was 0 CELLS/uL and the “ABSOLUTE EOSINOPHIL” value [3] was 134 CELLS/uL. The “ABSOLUTE LYMPHOCYTE” value [3] was 11100 CELLS/uL, the “ABSOLUTE MONOCYTE” value [3] was 438.67 CELLS/uL and the “ABSOLUTE SEGMENTED NEUTROPHIL” value [3] was 1260.67 CELLS/uL. The BASOPHIL [3] was 0%, the EOSINOPHIL [3] was 1% and the “ERYTHROCYTE COUNT” value [3] was 5.4 x10E6/uL. For the same compound, the HEMATOCRIT [3] was 34.47%, the HEMOGLOBIN [3] was 13.6 G/DL and the “LEUKOCYTE COUNT” value [3] was 12.93 x10E3/uL. For the same compound, the LYMPHOCYTE [3] was 86%, the “MEAN CORPUSCULAR HEMOGLOBIN” value [3] was 25.2 pg and the “MEAN CORPUSCULAR HEMOGLOBIN CONCENTRATION” value [3] was 39.43 G/DL. For the same compound, the “MEAN CORPUSCULAR VOLUME” value [3] was 63.87 fL, the MONOCYTE [3] was 3.33% and the NEUTROPHIL [3] was 9.67%. The “NUCLEATED RED BLOOD CELLS” value [3] was 0 /100WBC, the “PLATELET COUNT” value [3] was 1307.67 x10E3/uL and the “ALANINE AMINOTRANSFERASE” value [3] was 68 u/L. The ALBUMIN [3] was 3.93 G/DL, the “ALKALINE PHOSPHATASE” value [3] was 423 u/L and the “ASPARTATE AMINOTRANSFERASE” value [3] was 81.33 u/L. For the same compound, the “BLOOD UREA NITROGEN” value [3] was 13.33 mg/dL, the “CARBON DIOXIDE” value [3] was 25.33 mmol/L and the CHLORIDE [3] was 101 MEQ/L. The CHOLESTEROL [3] was 71 mg/dL, the “CREATINE PHOSPHOKINASE” value [3] was 316.67 u/L and the CREATININE [3] was 0.26 mg/dL. For the same compound, the GLUCOSE [3] was 153.33 mg/dL, the “LACTATE DEHYDROGENASE” value [3] was 99.67 u/L and the LIPASE [3] was 13 u/L. For the same compound, the PHOSPHORUS [3] was 11.17 mg/dL, the POTASSIUM [3] was 5.8 MEQ/L and the SODIUM [3] was 140.37 MEQ/L. For the same compound, the “TOTAL BILIRUBIN” value [3] was 0.17 mg/dL, the “TOTAL PROTEIN” value [3] was 5.67 G/DL and the “URIC ACID” value [3] was 1.1 mg/dL.
